Common to all, as to assay type: functional
For experiment [1], the system named is Rattus norvegicus. The experiment can be described thus: Total iron output induced by the compound (oral administration) and bile duct cannulated rat and the drug-promoted iron excretion was monitored in the bile at 12 hr.
Experiment [2] has as its system Rattus norvegicus. Nature of the experiment: Total iron output induced by the compound (oral administration) and bile duct cannulated rat and the drug-promoted iron excretion was monitored in the bile at 18 h.
The subject of experiment [3] is Rattus norvegicus. Nature of the experiment: Total iron output induced by the compound (oral administration) and bile duct cannulated rat and the drug-promoted iron excretion was monitored in the bile at 3h. Note: test concentration or dose not given here.
Experiment [4] concerns Rattus norvegicus. The experiment can be described thus: Total iron output induced by the compound (oral administration) and bile duct cannulated rat and the drug-promoted iron excretion was monitored in the urine at 24 hr.
The test system of experiment [5] is Rattus norvegicus. Nature of the experiment: Total iron output induced by the compound (oral administration) and bile duct cannulated rat and the drug-promoted iron excretion was monitored in the bile at 24 hr.
In experiment [6] the test system is Rattus norvegicus. The experiment can be described thus: Total iron output induced by the compound (oral administration) and bile duct cannulated rat and the drug-promoted iron excretion was monitored in the bile at 9 h.
For experiment [7], the system named is Rattus norvegicus. Nature of the experiment: Total iron output induced by the compound (oral administration) and bile duct cannulated rat and the drug-promoted iron excretion was monitored in the bile at 21 hr. Note: test concentration or dose not given here.
Experiment [8] deals with Rattus norvegicus. The experiment can be described thus: Total iron output induced by the compound (oral administration) and bile duct cannulated rat and the drug-promoted iron excretion was monitored in the bile at 6 hr. Note: test concentration or dose not given here.
The test system of experiment [9] is Rattus norvegicus. The experiment can be described thus: Total iron output induced by the compound (oral administration) and bile duct cannulated rat and the drug-promoted iron excretion was monitored in the bile at 15 hr. Note: test concentration or dose not given here.
Experiment [10] relates to Rattus norvegicus. Nature of the experiment: Total iron output induced by the compound (sc administration) and bile duct cannulated rat and the drug-promoted iron excretion was monitored in the bile at 21 hr.
Experiment [11] deals with Rattus norvegicus. Nature of the experiment: Total iron output induced by the compound (sc administration) and bile duct cannulated rat and the drug-promoted iron excretion was monitored in the bile at 18 h.
In experiment [12] the test system is Rattus norvegicus. Nature of the experiment: Total iron output induced by the compound (sc administration) and bile duct cannulated rat and the drug-promoted iron excretion was monitored in the bile at 9 h.
Experiment [13] has as its system Rattus norvegicus. The experiment can be described thus: Total iron output induced by the compound (sc administration) and bile duct cannulated rat and the drug-promoted iron excretion was monitored in the bile at 24 hr.
For experiment [14], the system named is Rattus norvegicus. The experiment can be described thus: Total iron output induced by the compound (sc administration) and bile duct cannulated rat and the drug-promoted iron excretion was monitored in the bile at 12 hr.
Experiment [15] has as its system Rattus norvegicus. Nature of the experiment: Total iron output induced by the compound (sc administration) and bile duct cannulated rat and the drug-promoted iron excretion was monitored in the urine at 24 hr.
In experiment [16] the test system is Rattus norvegicus. Nature of the experiment: Total iron output induced by the compound (sc administration) and bile duct cannulated rat and the drug-promoted iron excretion was monitored in the bile at 15 hr.
For experiment [17], the system named is Rattus norvegicus. Nature of the experiment: Total iron output induced by the compound (sc administration) and bile duct cannulated rat and the drug-promoted iron excretion was monitored in the bile at 6 hr.
For experiment [18], the system named is Rattus norvegicus. Nature of the experiment: Total iron output induced by the compound (sc administration) and bile duct cannulated rat and the drug-promoted iron excretion was monitored in the bile at 3h.

For `O=C([O-])[C@@H]1CSC(c2ncccc2O)=N1.[Na+]`, the Total iron output with Rattus norvegicus [1] came to 48.5 µg/kg; in the experiment with Rattus norvegicus [2], 65.3 µg/kg; with Rattus norvegicus [3] it was 9 µg/kg; in the experiment on Rattus norvegicus [4], 21 µg/kg; in the experiment on Rattus norvegicus [5], 81.9 µg/kg; with Rattus norvegicus [6], 40.7 µg/kg. Also, the Total iron output worked out at 74.8 µg/kg in the experiment with Rattus norvegicus [7], 28.1 µg/kg in the experiment on Rattus norvegicus [8] and 56.3 µg/kg with Rattus norvegicus [9].

As to `O=C([O-])[C@@H]1CSC(c2ccccc2O)=N1.[Na+]`, the Total iron output in the experiment with Rattus norvegicus [1] amounted to 184.9 µg/kg; with Rattus norvegicus [2], 226.8 µg/kg; in the experiment on Rattus norvegicus [3], 28.6 µg/kg; with Rattus norvegicus [4], 18.67 µg/kg; in the experiment on Rattus norvegicus [5], 246.9 µg/kg; in the experiment with Rattus norvegicus [6], 143.8 µg/kg. For the same compound, the figures for the Total iron output in the experiment on Rattus norvegicus [7], with Rattus norvegicus [8] and in the experiment with Rattus norvegicus [9] were 238.1 µg/kg, 91.6 µg/kg and 210.6 µg/kg, respectively.

Take `O=C(O)[C@@H]1CSC(c2ccccn2)=N1`: the Total iron output amounted to 39.5 µg/kg in the experiment on Rattus norvegicus [1]; 56.2 µg/kg with Rattus norvegicus [2]; 11.8 µg/kg in the experiment with Rattus norvegicus [3]; 14.2 µg/kg in the experiment with Rattus norvegicus [4]; 71.9 µg/kg in the experiment with Rattus norvegicus [5]; 31.2 µg/kg in the experiment on Rattus norvegicus [6]. Further, the Total iron output in the experiment on Rattus norvegicus [7] worked out at 64.1 µg/kg; with Rattus norvegicus [8], 22.5 µg/kg; in the experiment on Rattus norvegicus [9], 47.1 µg/kg.

Turning to `O=C(O)[C@@H]1CSC(c2ncccc2O)=N1`, the Total iron output in the experiment with Rattus norvegicus [1] was determined as 182.3 µg/kg; with Rattus norvegicus [2], 201.3 µg/kg; in the experiment with Rattus norvegicus [3], 28.7 µg/kg; with Rattus norvegicus [4], 14.1 µg/kg; in the experiment with Rattus norvegicus [5] it was 217.2 µg/kg; in the experiment with Rattus norvegicus [6], 154 µg/kg. Also, the Total iron output with Rattus norvegicus [7] turned out to be 209.6 µg/kg; in the experiment on Rattus norvegicus [8] it was 98.2 µg/kg; in the experiment with Rattus norvegicus [9] it was 194 µg/kg.

Consider `C[C@]1(C(=O)NCCCCNCCCNC(=O)[C@@]2(C)CSC(c3ncccc3O)=N2)CSC(c2ncccc2O)=N1`, for which the Total iron output was 56.6 µg/kg in the experiment on Rattus norvegicus [1]; 74 µg/kg in the experiment on Rattus norvegicus [2]; 13.2 µg/kg in the experiment on Rattus norvegicus [3]; 18 µg/kg in the experiment with Rattus norvegicus [4]; 92.8 µg/kg with Rattus norvegicus [5]; 45.2 µg/kg with Rattus norvegicus [6]. Moreover, the Total iron output was found to be 82.2 µg/kg in the experiment on Rattus norvegicus [7], 30 µg/kg in the experiment with Rattus norvegicus [8] and 65.8 µg/kg in the experiment on Rattus norvegicus [9].

Take `COC(=O)[C@H]1N=C(c2ncccc2O)O[C@@H]1C`: the Total iron output in the experiment with Rattus norvegicus [1] stood at 37.3 µg/kg; in the experiment with Rattus norvegicus [2], 49.4 µg/kg; with Rattus norvegicus [3], 11.3 µg/kg; in the experiment with Rattus norvegicus [4], 7.6 µg/kg; with Rattus norvegicus [5], 60.8 µg/kg; in the experiment on Rattus norvegicus [6], 20.2 µg/kg. Further, the Total iron output with Rattus norvegicus [7] was 55.1 µg/kg; in the experiment with Rattus norvegicus [8] it was 21.3 µg/kg; in the experiment with Rattus norvegicus [9], 43.7 µg/kg.

With `COC(=O)[C@@H]1CSC(c2ncccc2O)=N1`, the Total iron output was determined as 68.7 µg/kg with Rattus norvegicus [1]; 81 µg/kg in the experiment with Rattus norvegicus [2]; 42.9 µg/kg with Rattus norvegicus [3]; 18.7 µg/kg with Rattus norvegicus [4]; 93.3 µg/kg in the experiment on Rattus norvegicus [5]; 59.9 µg/kg in the experiment on Rattus norvegicus [6]. In addition, the Total iron output turned out to be 85.3 µg/kg in the experiment with Rattus norvegicus [7], 53.3 µg/kg with Rattus norvegicus [8] and 74.7 µg/kg in the experiment with Rattus norvegicus [9].

Consider `O=C([O-])[C@@H]1CSC(c2ccccn2)=N1.[Na+]`, for which the Total iron output in the experiment with Rattus norvegicus [1] came out at 34.9 µg/kg; in the experiment on Rattus norvegicus [2] it was 49.6 µg/kg; in the experiment with Rattus norvegicus [3], 7.1 µg/kg; in the experiment on Rattus norvegicus [4], 11.9 µg/kg; in the experiment on Rattus norvegicus [5], 62.1 µg/kg; in the experiment with Rattus norvegicus [6], 26.2 µg/kg. Also, the results for the Total iron output with Rattus norvegicus [7], in the experiment with Rattus norvegicus [8] and with Rattus norvegicus [9] were 56.8 µg/kg, 16.6 µg/kg and 42.2 µg/kg, respectively.

Take `CC(=O)N(O)CCCCCNC(=O)CCC(=O)N(O)CCCCCNC(=O)CCC(=O)N(O)CCCCCN` [DEFEROXAMINE]: the Total iron output with Rattus norvegicus [1] turned out to be 97.1 µg/kg; with Rattus norvegicus [10], 219.8 µg/kg; with Rattus norvegicus [11] it was 210.7 µg/kg; with Rattus norvegicus [2], 119.8 µg/kg; with Rattus norvegicus [3] it was 14.7 µg/kg; in the experiment with Rattus norvegicus [4] it was 16.5 µg/kg. The Total iron output came to 152.8 µg/kg in the experiment with Rattus norvegicus [12]; 135 µg/kg with Rattus norvegicus [5]; 228.4 µg/kg with Rattus norvegicus [13]; 173.9 µg/kg in the experiment on Rattus norvegicus [14]; 49.2 µg/kg with Rattus norvegicus [15]; 76.8 µg/kg in the experiment on Rattus norvegicus [6]. For the same compound, the Total iron output in the experiment on Rattus norvegicus [7] amounted to 128.7 µg/kg; in the experiment with Rattus norvegicus [16], 196.2 µg/kg; in the experiment on Rattus norvegicus [17], 105.9 µg/kg; in the experiment with Rattus norvegicus [8], 43.9 µg/kg; with Rattus norvegicus [9], 110.8 µg/kg; in the experiment on Rattus norvegicus [18] it was 43.6 µg/kg.

Consider `C[C@]1(C(=O)[O-])CSC(c2ncccc2O)=N1.[Na+]` [DESFERRITHIOCIN SODIUM], for which the Total iron output with Rattus norvegicus [1] worked out at 125.8 µg/kg; with Rattus norvegicus [2], 146.8 µg/kg; in the experiment with Rattus norvegicus [3] it was 21.8 µg/kg; with Rattus norvegicus [4], 38.43 µg/kg; in the experiment on Rattus norvegicus [5], 159.3 µg/kg; in the experiment on Rattus norvegicus [6], 111.7 µg/kg. The Total iron output in the experiment on Rattus norvegicus [7] amounted to 153.2 µg/kg; in the experiment with Rattus norvegicus [8], 70 µg/kg; in the experiment on Rattus norvegicus [9] it was 135.9 µg/kg.

Take `C[C@]1(C(=O)O)CSC(c2ncccc2O)=N1` [DESFERRITHIOCIN]: the Total iron output in the experiment with Rattus norvegicus [1] stood at 234.8 µg/kg; in the experiment on Rattus norvegicus [2], 253.7 µg/kg; with Rattus norvegicus [3], 64.5 µg/kg; in the experiment on Rattus norvegicus [4] it was 27 µg/kg; in the experiment with Rattus norvegicus [5], 268.5 µg/kg; with Rattus norvegicus [6] it was 205.3 µg/kg. Further, the Total iron output is 263.1 µg/kg with Rattus norvegicus [7], 143 µg/kg in the experiment on Rattus norvegicus [8] and 245.6 µg/kg in the experiment on Rattus norvegicus [9].

The values are drawn from ChEMBL document CHEMBL1125282, “Evaluation of desferrithiocin and its synthetic analogues as orally effective iron chelators” (1991).
